From patent US20200000721A1, “AQUEOUS COMPOSITIONS AND ASSOCIATED CREAM FORMULATIONS” (MedReleaf Corp., priority 2018, published 2020)

Tested on: microbial growth in the aqueous composition
Settings: 0.09% in aqueous composition of Table 6
Protocol: Microbiological testing was conducted according to USP <51> and USP (Antimicrobial Effectiveness Test) and USP <61> and <62> (Suitability Testing) in order to compare the effectiveness of 1) 0.09% potassium sorbate 2) 0.045% potassium sorbate and 0.045% Euxul™ 9010 and 3) 0.09% Euxul™ 9010 as an antimicrobial agent for prohibiting microbial growth in the aqueous composition described in Table 6.

C/C=C/C=C/C(=O)[O-].[K+] [potassium sorbate]
effectiveness as antimicrobial agent (comparison): as effective as Euxul™ 9010 and/or the combination of Euxul™ 9010 and potassium sorbate
